# Reference: patent publication US5726311A, “7-disubstituted-methyl-4-oxo-3H,5H-pyrrolo[3,2-d]pyrimidine and pharmaceutical uses and compositions containing the same” (BioCryst Pharmaceuticals, Inc., priority 1995, dated 1998)
# Biological target: T1, purine nucleoside phosphorylase (PNP) (Bos taurus, UniProt P55859)
# T1 sequence (P55859 1-289): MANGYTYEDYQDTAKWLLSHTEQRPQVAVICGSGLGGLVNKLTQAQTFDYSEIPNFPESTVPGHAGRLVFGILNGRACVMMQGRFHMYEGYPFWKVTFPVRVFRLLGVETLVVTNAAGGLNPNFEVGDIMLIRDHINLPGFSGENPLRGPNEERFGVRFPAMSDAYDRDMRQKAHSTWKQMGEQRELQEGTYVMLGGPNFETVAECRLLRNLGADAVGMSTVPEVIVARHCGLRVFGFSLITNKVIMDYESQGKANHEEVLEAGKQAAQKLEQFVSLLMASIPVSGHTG
# Experiment: Purine nucleoside phosphorylase (PNP) radiochemical enzyme assay, [14C]-hypoxanthine formation from [14C]-inosine
# [1] = IC50 (nM), table of Examples 36-42, phosphate concentration not printed in table (Ex. 37 and 38 values agree with 1 mM phosphate in text)
# [2] = IC50 (PNP inhibition), 1 mM phosphate, calf spleen PNP
# [3] = IC50 (PNP inhibition), 50 mM phosphate, calf spleen PNP
Compound,IC50 [1],IC50 [2],IC50 [3],"enzyme inhibition activity (IC50), in words (phosphate concentration not stated)"
"Nc1nc(O)c2[nH]c(N)c(Cc3cccs3)c2n1 [2,6-diamino-3,5-dihydro-7-(2-thienylmethyl)-4H-pyrollo-[3,2-d]pyrimidine-4-one, reference compound]",160 nM,,,
N#CCC(c1cc(Cl)cc(Cl)c1Cl)c1c[nH]c2c(=O)[nH]c(N)nc12 (stereo not shown) [Example 8A],,640 nM,10000 nM,
"Nc1nc(O)c2[nH]cc(C(CC(=O)O)c3ccccc3)c2n1 (stereo not shown) [Example 15, 3-(2-amino-4-oxo-3H,5H-pyrrolo[3,2-d]pyrimidin-7-yl)-3-phenylpropanoic acid]",,12 nM,190 nM,
"COC(=O)CC(c1ccccc1)c1c[nH]c2c(=O)[nH]c(N)nc12 (stereo not shown) [Example 19, 3-(2-amino-4-oxo-3H,5H-pyrrolo[3,2-d]pyrimidin-7-yl)-3-phenylpropanoic acid, methyl ester]",,,,Significant activity
N#CCC(c1cccc(Cl)c1)c1c[nH]c2c(=O)[nH]cnc12 (stereo not shown) [Example 40],10 nM,,,
